Data from patent publication US9702865B2, “System and method for high-content oncology assay” (RIGEL PHARMACEUTICALS, INC., priority 2002, dated 2017).

Columns and labels:
Assay type in all cases: cell-based
[1] = in vitro; conditions: human
Text: (§1) FIG. 9A illustrates one embodiment of processing steps associated with the operation of the cell death analysis module 62. The first processing step of FIG. 9A is to obtain luminescence intensity (LI) values corresponding to defined nuclei of cells captured by the image capture device (block 130), as described above. Based upon these LI values, the minimum nuclear luminescence intensity values (“MNLI”) are obtained (block 132). The MNLI value for a nucleus is the lowest LI value measured for that nucleus, for example, the lowest gray value of the pixels within a specific defined nucleus. At this point, the cell death analysis module 62 may compare the MNLI values of particular cells to a range of predefined MNLI values indicative of viable cells (block 134). A value falling outside this range identifies the cell as being non-viable or dead, whereas a value falling within this range identifies the cell as being viable or alive. Alternatively, the cell death analysis module 62 may be carried out with populations of cells, as illustrated in FIG. 9B. In this instance, MNLI values for a plurality of defined nuclei are obtained (block 142) based upon their LI values (block 140) and the percentage of cells having MNLI values falling outside a specified range of MNLI values is calculated (block 144). This percentage is then compared with a predefined percentage range indicative of a viable cell population (block 146). Cell populations having percentages falling within the predefined range are reported as viable populations, whereas percentages falling outside the predefined range are reported as non-viable populations.
(§2) In one embodiment, the range of MNLI values indicative of viable cells may be calculated from control cell MNLI values using standard statistical analyses. For example, the MNLI values that bound a specified percentage or confidence interval, for example, 80%, 90%, 95% or a higher percentage, of the control cell MNLI values may be used as boundaries to defined the range of MNLI values indicative of viable cells. As this range is only exemplary, it will be appreciated that higher or lower percentages may be utilized. As a specified example, the MNLI values that bound 95% of the MNLI values using a standard statistical analysis yields good results. […] Once applied, the percentage of test cells falling within (or without) the range can be calculated to assess whether the cell population is viable or non-viable. […]
(§3) The coordinates of these DMSO-treated cells form a tight band of MNLI values. Based on a statistical analysis, 95% of the MNLI values measured from this population fall within a range of 481 to 560 intensity units (i.e., within a range of […] from the statistical mean MNLI value). […]

[2] = system: A549 cells; test: in vitro; conditions: FIG. 10
Text: as §1, §2, §3

[3] = system: A549 cells; test: cell proliferation assay (nuclei count, cell proliferation analysis module); conditions: Homo sapiens; taxol-treated A549 cells, nuclei count vs concentration, FIG. 5
Text: The cell proliferation analysis module 58 provides information about the ability of cells to divide and proliferate. In general, the cell proliferation analysis module provides such information by counting the number of objects (typically nuclei) identified by the object identification module 57. In one embodiment, the cell proliferation analysis module […] can be used to screen for and/or identify candidate compounds having anti-proliferative activity. According to this embodiment, the proliferation of cells treated with or exposed to a candidate compound of interest can be monitored with the cell proliferation analysis module 58 of the invention. […] In a specific embodiment, samples of equal volume are collected from a cell culture as a function of time and analyzed for proliferation with the cell proliferation analysis module 58 of the invention. […]
In another specific embodiment, adherent cells may be treated with different concentrations of test compound, permitted to incubate for a specified period time and then analyzed with the cell proliferation analysis module 58. Plotting the average number of cells in each sample well as a function of compound concentration provides a curve from which the anti-proliferative IC50 (or EC50) can be determined. […]

EC50 [3] [nM] | SMILES | viability [1] [%] | induction of cell death (MNLI analysis and visual inspection of images) [2]
 | COc1cc([C@@H]2c3cc4c(cc3[C@@H](O[C@@H]3O[C@@H]5CO[C@@H](C)O[C@H]5[C@H](O)[C@H]3O)[C@H]3COC(=O)[C@H]23)OCO4)cc(OC)c1O [etoposide] | 99.5 | do not
2.2 | CC(=O)O[C@H]1C(=O)[C@@]2(C)[C@H]([C@H](OC(=O)c3ccccc3)[C@]3(O)C[C@H](OC(=O)[C@H](O)[C@@H](NC(=O)c4ccccc4)c4ccccc4)C(C)=C1C3(C)C)[C@]1(OC(C)=O)CO[C@@H]1C[C@@H]2O [taxol] | 83 | induce cell death
